Assay results as given in patent US20070255061A1, “5-Fluoro-, Chloro-and Cyano-Pyridin-2-Yl-Tetrazoles as Ligands of the Metabotropic Glutamate Receptor-5” (AstraZeneca AB, priority 2003, published 2007).
≈ marks a conversion by molar mass, not a printed value.

Tests used:
human mGluR5d = target: T1, human mGluR5d (Homo sapiens, UniProt P41594); experiment: FLIPR analysis of [Ca2+]i mobilization, antagonist activity; format: cell-based; conditions: cells expressing human mGluR5d, read-out: IC50 mGluR5
T1 construct: expressed in transfected cells; GHEK cells stably expressing the receptor are named only for the IP3 assay
T1 sequence (P41594 21-942 isoform P41594-3 limits assumed): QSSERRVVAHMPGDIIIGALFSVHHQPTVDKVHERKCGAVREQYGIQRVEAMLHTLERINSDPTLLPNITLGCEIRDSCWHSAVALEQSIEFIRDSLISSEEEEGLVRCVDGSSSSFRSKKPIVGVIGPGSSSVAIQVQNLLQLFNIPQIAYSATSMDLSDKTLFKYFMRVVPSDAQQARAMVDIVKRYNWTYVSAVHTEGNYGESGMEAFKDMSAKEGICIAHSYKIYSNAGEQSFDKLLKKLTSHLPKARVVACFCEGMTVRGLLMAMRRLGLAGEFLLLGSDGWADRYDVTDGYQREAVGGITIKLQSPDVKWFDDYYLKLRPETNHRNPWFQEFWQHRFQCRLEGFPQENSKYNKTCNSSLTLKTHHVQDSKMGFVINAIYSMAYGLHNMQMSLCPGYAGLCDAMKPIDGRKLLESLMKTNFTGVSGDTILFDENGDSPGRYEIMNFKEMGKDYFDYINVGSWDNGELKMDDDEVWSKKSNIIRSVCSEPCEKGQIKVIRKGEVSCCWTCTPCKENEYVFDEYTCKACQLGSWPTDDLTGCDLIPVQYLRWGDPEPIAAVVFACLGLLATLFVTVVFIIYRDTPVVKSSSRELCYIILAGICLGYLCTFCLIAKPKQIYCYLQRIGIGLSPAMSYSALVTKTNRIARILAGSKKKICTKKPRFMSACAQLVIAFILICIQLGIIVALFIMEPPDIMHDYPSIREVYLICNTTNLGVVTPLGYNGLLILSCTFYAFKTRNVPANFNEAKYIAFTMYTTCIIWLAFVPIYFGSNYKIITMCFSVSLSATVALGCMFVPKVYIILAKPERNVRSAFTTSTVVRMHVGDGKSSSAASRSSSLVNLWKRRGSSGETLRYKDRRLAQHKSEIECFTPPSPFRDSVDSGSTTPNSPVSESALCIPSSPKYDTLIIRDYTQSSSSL
Method: FLIPR experiments were done using a laser setting of 0.800 W and a 0.4 second CCD camera shutter speed. Each FLIPR experiment was initiated with 160 μl of buffer present in each well of the cell plate. After each addition of the compound, the fluorescence signal was sampled 50 times at 1 second intervals followed by 3 samples at 5 second intervals. Responses were measured as the peak height of the response within the sample period. EC50 and IC50 determinations were made from data obtained from 8-point concentration response curves (CRC) performed in duplicate. Agonist CRC were generated by scaling all responses to the maximal response observed for the plate. Antagonist block of the agonist challenge was normalized to the average response of the agonist challenge in 14 control wells on the same plate.
Cell cultures in the 96-well plates were loaded with a 4 μM solution of acetoxymethyl ester form of the fluorescent calcium indicator fluo-3 (Molecular Probes, Eugene, Oreg.) in 0.01% pluronic.
Each FLIPR experiment was initiated with 160 μl of buffer present in each well of the cell plate. […] After each addition the fluorescence signal was sampled 50 times at 1 second intervals followed by 3 samples at 5 second intervals. Responses were measured as the peak height of the response within the sample period. […]

[1] = Metabolic stability in pooled human liver microsomes; format: in vitro ADME; conditions: for h.mic. FH (fraction escaping hepatic clearance): 1 μM compound, 0.5 mg microsomal protein/mL, 37° C., calculated from halflife, fu=1; for human microsomal metabolic stability (h.mic. FH) compared to the unsubstituted analog (Z=H): incubated with human microsomes
Method: The compounds were incubated (at 1 μM) with characterized, pooled human liver microsomes (0.5 mg microsomal protein/mL incubation) at 37° C. in phosphate buffer (50 mM potassium phosphate, pH 7.4) The incubations were started by the addition of a cofactor (1 mM NADPH (Nicotinamide adenine dinucleotide phosphate in reduced form) and terminated by the addition of acetonitrile (1:1). The incubations were analyzed by LC/MS and a time curve for the disappearance of the parent compound was constructed. Control incubations without microsomes, or with acetonitrile addition before the addition of the cofactor, were used to check for non-enzymatic degradation/disappearance. […] The fraction escaping hepatic clearance, FH, given in %, was calculated from the hepatic clearance according to the following equation: [formula] Thus, the higher the FH, the more metabolically stable the compound. Solubility

[2] = Aqueous solubility in 0.1 M phosphate buffer pH 7.4; format: physicochemical; conditions: for solubility at 24 h: 21 °C, aqueous buffer, thermodynamic from solid, 0.1 M phosphate buffer, pH 7.4, 20 to 22° C., read-out: aq. Solubility
Method: Duplicate of 1-2 mg of the test compound are incubated in 0.1 M phosphate buffer, pH 7.4, in 2 mL glass-vials on a plate bed shaker (IKA®-Schüttler MTS-4, IKA Labortechnik) at 300 rpm at a temperature of 20 to 22° C. for 24 hours. Non-dissolved material is centrifugated down from the saturated solution at 3000 rpm for 2×15 minutes at 22° C. (Multifuge® 3 S-R, Heraeus). The aqueous supernatant is transferred to glass-vials and aliquotes used for quantitative analysis using reversed HPLC with MS confirmation of compound identity. Quantification is performed by the UV-trace of the chromatogram against a calibration curve, 0-200 μM, of the test compound dissolved in DMSO at the wavelength of a positive inflection point of the UV spectrum. The reported values (aq. solubility) are the mean values of duplicate HPLC-analysis of two independent incubations.

| Compound | IC50 (human mGluR5d) | h.mic. FH (fraction escaping hepatic clearance) [1] | solubility at 24 h [2] | human microsomal metabolic stability (h.mic. FH) compared to the unsubstituted analog (Z=H) [1] | increase in solubility compared to the corresponding bromo derivative (Z=Br) ([2]; aq. solubility) |
| --- | --- | --- | --- | --- | --- |
| N#Cc1cc(F)cc(-n2nnc(-c3ccccn3)n2)c1 [3-fluoro-5-(5-pyridin-2-yl-2H-tetrazol-2-yl)benzonitrile] | 12 nM | 10% | 43 µM (≈ 11.4 µg/mL) |  |  |
| N#Cc1cc(F)cc(-n2nnc(-c3ccc(F)cn3)n2)c1 [3-Fluoro-5-[5-(5-fluoropyridin-2-yl)-2H-tetrazol-2-yl]benzonitrile] |  | 71% | 4.3 µM (≈ 1.22 µg/mL) | significantly more stable | 22 fold |
| N#Cc1cc(F)cc(-n2nnc(-c3ccc(Br)cn3)n2)c1 [3-[5-(5-bromopyridin-2-yl)-2H-tetrazol-2-yl]-5-fluorobenzonitrile] |  | 92% | 0.2 µM (≈ 0.069 µg/mL) | significantly higher human metabolic stability |  |
